Values belong to the molecule of their own block, whether it stands above or below them.
How the values were obtained:
CRF1 vs. CRF2 receptors = details: stated in method, no reference given; cited from earlier work
CRF1 receptor = details: earlier CRF1 ligand; cited from earlier work
[125I]ovine-CRF = biological target: T1, [125I]ovine-CRF (Ovis aries, UniProt P01142, 125I-labelled CRF); experiment: radioligand binding
T1 chain: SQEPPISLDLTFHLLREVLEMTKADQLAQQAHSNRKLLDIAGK

Molecule: ovine-CRF
- selective for CRF1 vs. CRF2 (CRF1 vs. CRF2 receptors): > 100 fold

Molecule: CCC(COC)n1nnc2c(Nc3ccc(OC)cc3C)nc(C)cc21 (racemic) [[^3H]SN003, (+/−)-N-[2-methyl-4-methoxyphenyl]-1(1-(methoxymethyl)propyl)-6-methyl-1H-1,2,3-triazolo[4,5-c]pyridin-4-amine]
- ratio of CRF1 receptor-specific to non-specific binding (CRF1 receptor): about 1

- Kd ([125I]ovine-CRF): 0.45 nM
B1: CRF1 receptor (protein)
chain: SLQDQRCENLSLTSNVSGLQCNASVDLIGTCWPRSPAGQLVVRPCPAFFYGVRYNTTNNGYRECLANGSWAARVNYSECQEILNEEKKSKVHYHVAVIINYLGHCISLVALLVAFVLFLRLRSIRCLRNIIHWNLISAFILRNATWFVVQLTVSPEVHQSNVAWCRLVTAAYNYFHVTNFFWMFGEGCYLHTAIVLTYSTDRLRKWMFVCIGWGVPFPIIVAWAIGKLHYDNEKCWFGKRPGVYTDYIYQGPMILVLLINFIFLFNIVRILMTKLRASTTSETIQYRKAVKATLVLLPLLGITYMLFFVNPGEDEVSRVVFIYFNSFLESFQGFFVSVFYCFLNSEVRSAIRKRWRRWQDKHSIRARVARAMSIPTSPTRVSFHSIKQSTAV

— PMC4072041 (Nuclear medicine and biology, 2014)
